# Activity calls are given as the source filed them. The rule behind the calls is not given here.
# Experiments:
# [1] = Inhibition of pyruvate carboxylase in human HepG2 cells measured upto 24 hrs by PC assay kit; type: cell-based
# [2] = Inhibition of pyruvate carboxylase in human HCCLM3 cell lysate measured upto 24 hrs by PC assay kit; type: subcellular
# [3] = system: HepG2; test: Induction of apoptosis in human HepG2 cells assessed as cell shrinkage at 100 nM incubated for 24 hrs by DAPI staining based phase contrast microscopic analysis; type: functional
# [4] = system: HepG2; test: Antiproliferative activity against human HepG2 cells assessed as inhibition of cell growth measured after 48 hrs by MTT assay; type: functional, cell-based; settings: HepG2, 48 h
# [5] = system: HCCLM3; test: Reversal of H2O2-induced cell death in human HCCLM3 cells at 10 nM pretreated for 24 hrs followed by H2O2 addition and further incubated for 24 hrs in presence of OAA by MTT assay; type: functional, cell-based; settings: time 48.0 hrs
# [6] = system: HCCLM3; test: Induction of glycolysis in human HCCLM3 cells assessed as decrease in level of aspartate at 5 nM; type: functional, cell-based
# [7] = system: HCCLM3; test: Antimigratory activity against PC knockout human HCCLM3 cells assessed as suppression of cell migration at 0.5 nM measured after 48 hrs by wound healing assay; type: functional, cell-based
# [8] = system: HepG2; test: Inhibition of pyruvate carboxylase in human HepG2 cells measured at 0.001 to 10 nM for 24 hrs; type: cell-based; settings: dose 0.001-10 nM
# [9] = system: HepG2; test: Induction of apoptosis in human HepG2 cells assessed as increase cleaved PARP level measured after 24 hrs by Western blot analysis; type: functional, cell-based; settings: dose 10-40 nM
# [10] = system: HepG2; test: Cytotoxicity against PC knockout human HepG2 cells assessed as reduction in cell viability at 20 to 100 nM measured after 48 hrs by MTT assay; type: functional, cell-based; settings: dose 20-100 nM
# [11] = system: HCCLM3; test: Inhibition of mitochondrial oxidative stress in PC knockout human HCCLM3 cells assessed as reduction in NADH/NAD ratio at 10 nM; type: functional, cell-based
# [12] = system: HCCLM3; test: Induction of mitochondrial oxidative stress in human HCCLM3 cells assessed as accumulation of ROS at 10 nM by DCFH-DA staining based flow cytometry analysis; type: functional, cell-based; settings: TDE = time-dependent effect
# [13] = Toxicity in NCR-nu/nu mouse bearing human HepG2 tumor assessed as effect on body weight at 25 to 50 mg/kg, ip administered alternate days for 21 days and measured every three days; type: organism-based; settings: in vivo, 504 h, dose 25-50 mg/kg, time 21 day
# [14] = system: MHCC97; test: Antiproliferative activity against human MHCC97 cells assessed as inhibition of cell growth measured after 48 hrs by MTT assay; type: functional, cell-based; settings: MHCC97, 48 h
# [15] = system: HepG2; test: Inhibition of pyruvate carboxylase in human HepG2 cells measured at 10 nM upto 24 hrs; type: cell-based; settings: time hrs <=24
# [16] = system: HepG2; test: Antitumor activity against human HepG2 cells xenografted in NCR-nu/nu mouse assessed reduction in tumor growth at 25 to 50 mg/kg, ip administered alternate days for 21 days and measured 26 days post implantation; type: functional, organism-based; settings: dose 25-50 mg/kg, time 21.0 day
# [17] = Antiproliferative activity against human HCCLM3 cells assessed as inhibition of cell growth measured after 48 hrs by MTT assay; type: functional, cell-based; settings: HCCLM3, 48 h
# [18] = system: HCCLM3; test: Antitumor activity against human HCCLM3 cells xenografted in NCR-nu/nu mouse assessed reduction in tumor growth at 25 to 50 mg/kg, ip administered alternate days for 21 days and measured 26 days post implantation; type: functional, organism-based; settings: dose 25-50 mg/kg, time 21.0 day
# [19] = system: HepG2; test: Induction of caspase-mediated apoptosis in human HepG2 cells assessed as reduction in cell viability at 100 to 400 nM incubated for 48 hrs in presence of Z-VAD-FMK by MTT assay; type: functional, cell-based; settings: dose 100-400 nM
# [20] = system: HCCLM3; test: Inhibition of epithelial-mesenchymal transition in human HCCLM3 cells assessed as upregulation of E-cadherin expression at 0.05 to 1 nM incubated for 24 hrs by Western blot analysis; type: functional, cell-based; settings: dose 0.05-1 nM
# [21] = system: HCCLM3; test: Induction of apoptosis in human HCCLM3 cells assessed as decrease in cell viability at 20 to 40 nM incubated for 48 hrs in presence of 2 mM OAA MTT assay; type: functional, cell-based; settings: dose 20-40 nM
# [22] = system: SK-HEP1; test: Anti-invasive activity in human SK-HEP1 cells overexpressing PC assessed as suppression of cell invasion at 0.05 nM measured after 48 hrs by transwell assay; type: functional, cell-based
# [23] = biological target: AMP-activated protein kinase, AMPK (Homo sapiens) (UniProt P54646+O43741+P54619+Q9UGJ0+Q9Y478+Q13131+Q9UGI9); test: Activation of AMPK pathway in human HCCLM3 cells assessed as increase in AMPK phosphorylation level at 5 nM measured after 1 hr by Western blot analysis; type: cell-based; settings: filed as activator
# [24] = system: HCCLM3; test: Antimigratory activity in human HCCLM3 cells assessed as inhibition of scratch closure at 0.05 to 1 nM measured after 24 hrs by […] assay; type: functional, cell-based; settings: dose 0.05-1 nM
# [25] = system: HepG2; test: Competitive inhibition of recombinant pyruvate carboxylase in human HepG2 cell lysate in presence of Erianin at 20 uM for 120 mins followed by irradiation of 365 nm UV light for 15 min by Native -PAGE analysis; type: subcellular
# [26] = system: HCCLM3; test: Induction of glycolysis in PC knockout human HCCLM3 cells assessed as intracellular lactate concentration at 10 nM CheKine lactate assay; type: functional, cell-based
# [27] = system: HCCLM3; test: Induction of glycolysis in PC knockout human HCCLM3 cells assessed as intracellular glucose consumption at 10 nM; type: functional, cell-based
# [28] = system: HCCLM3; test: Induction of glycolysis in human HCCLM3 cells assessed as decrease in level of acetyl-CoA at 5 nM; type: functional, cell-based
# [29] = system: HCCLM3; test: Cytotoxicity against human HCCLM3 cells assessed as reduction in cell viability at 5 to 20 nM incubated for 48 hrs in presence of H2O2 by MTT assay; type: functional, cell-based; settings: dose 5-20 nM
# [30] = system: SK-HEP1; test: Antiproliferative activity against human SK-HEP1 cells assessed as inhibition of cell growth measured after 48 hrs by MTT assay; type: functional, cell-based; settings: SK-HEP1, 48 h
# [31] = Systemic toxicity in NCR-nu/nu mouse bearing human HCCLM3 tumor assessed as pathological change in heart at 25 to 50 mg/kg, ip administered alternate days for 21 days and measured 26 days post implantation by H and E staining based analysis; type: organism-based; settings: in vivo, 504 h, dose 25-50 mg/kg, time 21 day
# [32] = system: HepG2; test: Induction of apoptosis in human HepG2 cells assessed as nuclear condensation at 100 nM incubated for 24 hrs by DAPI staining based phase contrast microscopic analysis; type: functional, cell-based
# [33] = Systemic toxicity in NCR-nu/nu mouse bearing human HCCLM3 tumor assessed as pathological change in lung at 25 to 50 mg/kg, ip administered alternate days for 21 days and measured 26 days post implantation by H and E staining based analysis; type: organism-based; settings: in vivo, 504 h, dose 25-50 mg/kg, time 21 day
# [34] = system: HCCLM3; test: Inhibition of epithelial-mesenchymal transition in human HCCLM3 cells assessed as decrease in fibronectin expression level at 0.05 to 1 nM incubated for 24 hrs by Western blot analysis; type: functional, cell-based; settings: dose 0.05-1 nM
# [35] = system: HepG2; test: Effect on cell cycle arrest in human HepG2 cells assessed as decrease in accumulation of cells at G0/G1 phase incubated for 24 hrs by propidium iodide staining based flow cytometry analysis; type: functional; settings: dose 20-80 nM
# [36] = system: HCCLM3; test: Induction of glycolysis in human HCCLM3 cells assessed as decrease in level of serine at 5 nM; type: functional, cell-based
compound,measurement,setting,value
COc1ccc(CCc2cc(OC)c(OC)c(OC)c2)cc1O,IC50,[1],9.35 nM
same,IC50,[2],5.18 nM
same,Activity,[3],Active
same,IC50,[4],99.3 nM
same,Activity,[5],Active
same,Activity,[6],Active
same,Activity,[7],Active
same,inhibition,[8],inactive
same,Activity,[9],Dose-Dependent Effect
same,Activity,[10],inactive
same,inhibition,[11],Active
same,Activity,[12],Tde
same,Activity,[13],Non-Toxic
same,IC50,[14],386 nM
same,inhibition,[15],inactive
same,Activity,[16],Active
same,IC50,[17],17.7 nM
same,Activity,[18],Active
same,Activity,[19],inactive
same,inhibition,[20],Active
same,Activity,[21],inactive
same,Activity,[22],Active
same,Activity,[23],Active
same,Activity,[24],Active
same,inhibition,[25],Active
same,Activity,[26],Active
same,Activity,[27],Active
same,Activity,[28],Active
same,Activity,[29],Active
same,IC50,[30],757 nM
same,Activity,[31],Non-Toxic
same,Activity,[32],Active
same,Activity,[33],Non-Toxic
same,inhibition,[34],Active
same,Activity,[35],Dose-Dependent Effect
same,Activity,[36],Active

# — ChEMBL document CHEMBL5046245, “Identification of Pyruvate Carboxylase as the Cellular Target of Natural Bibenzyls with Potent Anticancer Activity against Hepatocellular Carcinoma via Metabolic Reprogramming” (J Med Chem, 2022)
